Target: T1, Acyl-CoA: Cholesterol Acyltransferase (ACAT) (Rattus norvegicus, UniProt Q7TQM4)
T1 construct: centrifuged at 105,000×g for 1 hour to pellet the microsomes; from tissue; host or cells: liver microsomes of male Sprague Dawley rats
T1 sequence (Q7TQM4 1-524): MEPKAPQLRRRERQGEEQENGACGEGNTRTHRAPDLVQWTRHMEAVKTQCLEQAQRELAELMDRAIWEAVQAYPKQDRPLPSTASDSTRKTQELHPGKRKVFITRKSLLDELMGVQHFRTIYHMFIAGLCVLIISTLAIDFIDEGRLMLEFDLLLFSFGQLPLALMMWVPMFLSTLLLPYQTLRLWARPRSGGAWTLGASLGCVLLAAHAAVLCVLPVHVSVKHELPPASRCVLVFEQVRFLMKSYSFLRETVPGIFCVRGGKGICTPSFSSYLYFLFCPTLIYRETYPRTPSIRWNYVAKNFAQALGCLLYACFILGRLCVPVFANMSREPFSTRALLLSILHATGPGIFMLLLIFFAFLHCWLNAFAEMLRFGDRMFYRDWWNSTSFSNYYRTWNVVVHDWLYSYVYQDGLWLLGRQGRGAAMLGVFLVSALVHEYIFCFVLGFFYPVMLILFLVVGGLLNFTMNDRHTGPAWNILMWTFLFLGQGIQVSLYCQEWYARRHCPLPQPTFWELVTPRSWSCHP
Experiment: Inhibition of Acyl-CoA: Cholesterol Acyltransferase (ACAT) in Hepatic Microsomes (In Vitro Assay)
Type: biochemical, rat (male Sprague Dawley)
Settings: 75 μM 14C-oleoyl-CoA, pH 7.4, 37° C., 10 min, read-out: ACAT Inhibitory Activity (In Vitro) (IC50)
Procedure: A. Assay of the Inhibition of Acyl-CoA: Cholesterol Acyltransferase (ACAT) in Hepatic Microsomes (In Vitro Assay)
The ability of the compounds to inhibit ACAT, the enzyme responsible for the intracellular synthesis of cholesteryl esters, was tested as follows. Male Sprague Dawley rats weighing 150-300 g, were fed rat chow ad libitum. The animals were fasted for twenty-four hours prior to being euthanized by CO2. The livers were perfused in situ with 50 ml of cold 0.25 sucrose, excised, and homogenized in three volumes of 0.1M phosphate buffer, pH 7.4, that contained 0.5 mM EDTA (ethylenediamine-tetraacetic acid), 1.0 mM glutathione, 0.25M sucrose and […] leupeptin. Microsomes were obtained by differential centrifugation; the supernatant from an initial spin at 15,000×g for 15 minutes was centrifuged at 105,000×g for 1 hour to pellet the microsomes. The microsomes were suspended in homogenization buffer, reisolated by centrifugation, and stored at -70° C. Microsomes were used within one month of preparation.
The control assay in a final volume of 200 μl consisted of 200 μg of microsomal protein, 75 μM ^14 C-oleoyl-CoA (10,000 dpm/nmol) in 0.1M phosphate, pH 7.4, that contained 1 mM glutathione. Compounds were added in 5 μl of DMSO (dimethyl sulfoxide) and additional controls were run with DMSO only. All components, except the oleoyl-CoA, were preincubated for 15 min. at 37° C. prior to the initiation of the reaction by the addition of oleoyl-CoA. The assay was terminated after 10 min by the addition of 4 ml of chloroform:methanol (2:1, v/v). 20,000 dpm of ^3 H-cholesteryl oleate and 10 μg of unlabeled cholesteryl oleate and oleic acid were added as an internal standard and carriers, respectively. After allowing 10 min. for lipid extraction, the samples were centrifuged at 1,000×g for 10 min to separate the solvent layers. The chloroform layer containing the neutral lipids was spotted onto a Baker SI250-Pa silica gel TLC plate and the plate developed using a hexane:diethyl ether:acetic acid (170:30:1) v/v/v) mobile phase. The lipids were visualized by their interaction with iodine vapor and the cholesteryl ester spot was scraped into a scintillation vial and counted. The specific activity of ACAT in the control incubation averaged 260 pmol/min/mg microsomal protein. The data obtained are expressed as the concentration at which ACAT activity is inhibited by 50% (IC50).

IC50, < 1 µM:
CSc1cc(C)nc(SC)c1NC(=O)C(SCc1ccc(F)cc1)c1ccc(F)cc1 (stereo not drawn) [Example 153, N-[2,4-bis(methylthio)-6-methyl-3-pyridyl]-α-(4-fluoro-benzylthio)-4-fluoro-phenylacetamide]
COc1ccc(CSC(C(=O)Nc2c(SC)cc(C)nc2SC)c2ccc(F)cc2)cc1 (stereo not drawn) [Example 154, N-[2,4-bis(methylthio)-6-methyl-3-pyridyl]-α-(4-methoxy-benzylthio)-4-fluoro-phenylacetamide]
CSc1cc(C)nc(SC)c1NC(=O)C(Sc1ccc(F)cc1)c1ccc(F)cc1 (stereo not drawn) [Example 166, N-[2,4-bis(methylthio)-6-methyl-3-pyridyl]-α-(4-fluoro-phenylthio)-4-fluoro-phenylacetamide]
COc1ccc(SC(C(=O)Nc2c(SC)cc(C)nc2SC)c2ccc(F)cc2)cc1 (stereo not drawn) [Example 167, N-[2,4-bis(methylthio)-6-methyl-3-pyridyl]-α-(4-methoxy-phenylthio)-4-fluoro-phenylacetamide]
CCCCCCSC(C(=O)Nc1c(SC)cc(C)nc1SC)c1ccc(Cl)c(Cl)c1 (stereo not drawn) [Example 176, N-[2,4-bis(methylthio)-6-methyl-3-pyridyl]-α-hexylthio-3,4-dichloro-phenylacetamide]
CSc1cc(C)nc(SC)c1NC(=O)C(SCc1ccccc1)c1ccc(Cl)c(Cl)c1 (stereo not drawn) [Example 180, N-[2,4-bis(methylthio)-6-methyl-3-pyridyl]-α-benzylthio-3,4-dichloro-phenylacetamide]
CSc1cc(C)nc(SC)c1NC(=O)C(SCc1ccc(F)cc1)c1ccc(Cl)c(Cl)c1 (stereo not drawn) [Example 181, N-[2,4-bis(methylthio)-6-methyl-3-pyridyl]-α-(4-fluoro-benzylthio)-3,4-dichloro-phenylacetamide]
COc1ccc(CSC(C(=O)Nc2c(SC)cc(C)nc2SC)c2ccc(Cl)c(Cl)c2)cc1 (stereo not drawn) [Example 182, N-[2,4-bis(methylthio)-6-methyl-3-pyridyl]-α-(4-methoxy-benzylthio)-3,4-dichloro-phenylacetamide]
CCCCCCSC(C(=O)Nc1c(SC)cc(C)nc1SC)c1ccc(F)cc1F (stereo not drawn) [Example 204, N-[2,4-bis(methylthio)-6-methyl-3-pyridyl]-α-hexylthio-2,4-difluoro-phenylacetamide]
COc1ccc(CSC(C(=O)Nc2c(SC)cc(C)nc2SC)c2ccc(F)cc2F)cc1 (stereo not drawn) [Example 210, N-[2,4-bis(methylthio)-6-methyl-3-pyridyl]-α-(4-methoxy-benzylthio)-2,4-difluoro-phenylacetamide]
CCCCCCSC(C(=O)Nc1c(SC)cc(C)nc1SC)c1ccc(OC)c(OC)c1 (stereo not drawn) [Example 232, N-[2,4-bis(methylthio)-6-methyl-3-pyridyl]-α-hexylthio-3,4-dimethoxy-phenylacetamide]
COc1ccc(C(SCc2ccccc2)C(=O)Nc2c(SC)cc(C)nc2SC)cc1OC (stereo not drawn) [Example 236, N-[2,4-bis(methylthio)-6-methyl-3-pyridyl]-α-benzylthio-3,4-dimethoxy-phenylacetamide]
COc1ccc(C(SCc2ccc(F)cc2)C(=O)Nc2c(SC)cc(C)nc2SC)cc1OC (stereo not drawn) [Example 237, N-[2,4-bis(methylthio)-6-methyl-3-pyridyl]-α-(4-fluoro-benzylthio)-3,4-dimethoxy-phenylacetamide]
CCCCCCSC(C(=O)Nc1c(SC)cc(C)nc1SC)c1ccc(OCCCC)cc1 (stereo not drawn) [Example 260, N-[2,4-bis(methylthio)-6-methyl-3-pyridyl]-α-hexylthio-4-butoxy-phenylacetamide]
CCCCOc1ccc(C(SCc2ccccc2)C(=O)Nc2c(SC)cc(C)nc2SC)cc1 (stereo not drawn) [Example 264, N-[2,4-bis(methylthio)-6-methyl-3-pyridyl]-α-benzylthio-4-butoxy-phenylacetamide]
CCCCCCSC(C(=O)Nc1c(SC)cc(C)nc1SC)c1ccc(Oc2ccccc2)cc1 (stereo not drawn) [Example 288, N-[2,4-bis(methylthio)-6-methyl-3-pyridyl]-α-hexylthio-4-phenoxy-phenylacetamide]
CSc1cc(C)nc(SC)c1NC(=O)C(SCc1ccccc1)c1ccc(Oc2ccccc2)cc1 (stereo not drawn) [Example 292, N-[2,4-bis(methylthio)-6-methyl-3-pyridyl]-α-benzylthio-4-phenoxy-phenylacetamide]
CSc1cc(C)nc(SC)c1NC(=O)C(SCc1ccc(Cl)cc1)c1ccc(Oc2ccccc2)cc1 (stereo not drawn) [Example 295, N-[2,4-bis(methylthio)-6-methyl-3-pyridyl]-α-(4-chloro-benzylthio)-4-phenoxy-phenylacetamide]
CCCCCCSC(C(=O)Nc1c(SC)cc(C)nc1SC)c1cccc(Oc2ccccc2)c1 (stereo not drawn) [Example 316, N-[2,4-bis(methylthio)-6-methyl-3-pyridyl]-α-hexylthio-3-phenoxy-phenylacetamide]
CCCCCCSC(C(=O)Nc1c(SC)cc(C)nc1SC)c1cccc(Oc2ccc(Br)cc2)c1 (stereo not drawn) [Example 317, N-[2,4-bis(methylthio)-6-methyl-3-pyridyl]-α-hexylthio-3-(4'-bromophenoxy)-phenylacetamide]
CSc1cc(C)nc(SC)c1NC(=O)C(SCc1ccccc1)c1cccc(Oc2ccccc2)c1 (stereo not drawn) [Example 321, N-[2,4-bis(methylthio)-6-methyl-3-pyridyl]-α-benzylthio-3-phenoxy-phenylacetamide]
CSc1cc(C)nc(SC)c1NC(=O)C(SCc1ccccc1)c1cccc(Oc2ccc(Br)cc2)c1 (stereo not drawn) [Example 322, N-[2,4-bis(methylthio)-6-methyl-3-pyridyl]-α-benzylthio-3-(4'-bromophenoxy)-phenylacetamide]
CSc1cc(C)nc(SC)c1NC(=O)C(SCc1ccc(Cl)cc1)c1cccc(Oc2ccccc2)c1 (stereo not drawn) [Example 325, N-[2,4-bis(methylthio)-6-methyl-3-pyridyl]-α-(4-chloro-benzylthio)-3-phenoxy-phenylacetamide]
CSc1cc(C)nc(SC)c1NC(=O)C(SCc1ccc(Cl)cc1)c1cccc(Oc2ccc(Br)cc2)c1 (stereo not drawn) [Example 326, N-[2,4-bis(methylthio)-6-methyl-3-pyridyl]-α-(4-chloro-benzylthio)-3-(4'-bromophenoxy)-phenylacetamide]
CCCCCCSC(C(=O)Nc1c(SC)cc(C)nc1SC)c1ccc(C(F)(F)F)cc1 (stereo not drawn) [Example 375, N-[2,4-bis(methylthio)-6-methyl-3-pyridyl]-α-hexylthio-4-trifluoromethyl-phenylacetamide]
CSc1cc(C)nc(SC)c1NC(=O)C(SCc1ccccc1)c1ccc(C(F)(F)F)cc1 (stereo not drawn) [Example 379, N-[2,4-bis(methylthio)-6-methyl-3-pyridyl]-α-benzylthio-4-trifluoromethyl-phenylacetamide]
CSc1cc(C)nc(SC)c1NC(=O)C(SCc1ccc(F)cc1)c1ccc(C(F)(F)F)cc1 (stereo not drawn) [Example 380, N-[2,4-bis(methylthio)-6-methyl-3-pyridyl]-α-(4-fluoro-benzylthio)-4-trifluoromethyl-phenylacetamide]
COc1ccc(CSC(C(=O)Nc2c(SC)cc(C)nc2SC)c2ccc(C(F)(F)F)cc2)cc1 (stereo not drawn) [Example 381, N-[2,4-bis(methylthio)-6-methyl-3-pyridyl]-α-(4-methoxy-benzylthio)-4-trifluoromethyl-phenylacetamide]

From US5583147A, “Amides for the treatment of atherosclerosis” (The Dupont Merck Pharmaceutical Company, priority 1994, dated 1996)
